Results published in patent publication US4000151A, “Triazolyl benzophenone compounds” (priority 1975, dated 1976).

Legend:
Assay type in all cases: in vivo
mice [1] = assay: Pedestal test (mice staying on the pedestal for more than 1 minute); conditions: Mus musculus; Table II, route not given
Experimental: (§1) Sedative effects of 8-chloro-1-methyl-6-phenyl-4H-s-triazolo[ 4,3-a][ 1,4]benzodiazepine (a final product conforming to formula VII) are shown by the following tests in mice: […]
Pedestal test; The untreated mouse leaves the pedestal in less than a minute to climb back to the floor of the standard mouse box. Tranquilized mice will stay on the pedestal for more than 1 minute. The ED50 (oral administration) is 0.9 mg./kg.

mice [2] = assay: Chimney test (mice back up and out of a vertical glass cylinder within 30 seconds); conditions: Mus musculus
Experimental: as §1
Chimney test: [Med. Exp. 4, 145 (1961)]: The effective intraperitoneal dosage for 50% of the mice (ED50) is 0.09 mg./kg.; the oral ED50 is 0.6 mg./kg. The test determines the ability of mice to back up and out of a vertical glass cylinder within 30 seconds. At the effective dosage, 50% of the mice failed doing it.

mice [3] = assay: Nicotine antagonism test; conditions: Mus musculus; Table II, route not given
Experimental: Nicotine antagonism test: Mice in a group of 6 are injected with the test compound (8-chloro-1-methyl-6-phenyl-4H-s-triazolo[ 4,3-a][ 1,4]benzodiazepine). Thirty minutes later the mice, including control (untreated) mice are injected with nicotine salicylate (2 mg./kg.). The control mice show overstimulation, i.e., (1) running convulsions followed by (2) tonic extensor fits, followed by (3) death.

mice [4] = assay: Dish test (mice remaining in Petri dish for more than 3 minutes); conditions: Mus musculus; Table II, route not given
Experimental: as §1
Dish test: Mice in Petri dishes (10 cm. diameter, 5 cm. high, partially embedded in wood shavings), climb out in a very short time, when not treated. Mice remaining in the dish for more than 3 minutes indicates tranquilization. ED50 equals the dose of the test compound at which 50% of the mice remain in the dish.

SMILES	ED50 (mice [1]) [mg/kg]	ED50 (mice [2]; Table II, route not given, read-out: ED50 Ch) [mg/kg]	ED50 (mice [3]) [mg/kg]	ED50 (mice [4]) [mg/kg]	ED50 (mice [2]; mice, oral, read-out: oral ED50, chimney test) [mg/kg]
Cc1nncn1-c1ccc(Cl)cc1C(=O)c1ccccc1 [5-Chloro-2-(3-methyl-4H-1,2,4-triazol-4-yl)benzophenone]	20	28	20	23	
Cc1nnc2n1-c1ccc(Cl)cc1C(c1ccccc1)=NC2 [8-Chloro-1-methyl-6-phenyl-4H-s-triazolo[4,3-a][1,4]benzodiazepine]					0.6
